Source: patent publication US10428044B2, “3-amino-1,5,6,7-tetrahydro-4H-indol-4-ones” (Bayer Pharma Aktiengesellschaft, priority 2014, dated 2019)
Where “and” joins values, the source holds several entries; their conditions need not be identical. Equal entries are not always repeated.

Target: (recombinant) catalytic domain of human Bub1 (amino acids 704-1085) (Homo sapiens (Human), UniProt O43683)
Experiment: Bub1 kinase assay (TR-FRET)
Type: biochemical
Settings: ATP 10 μM final, peptide substrate 1 μM final, 60 min at 22° C., read-out: Biological Assay: Bub1 kinase assay median IC50
Description: Examples were tested in selected biological assays one or more times. When tested more than once, data are reported as either average values or as median values, wherein • the average value, also referred to as the arithmetic mean value, represents the sum of the values obtained divided by the number of times tested, and • the median value represents the middle number of the group of values when ranked in ascending or descending order. If the number of values in the data set is odd, the median is the middle value. If the number of values in the data set is even, the median is the arithmetic mean of the two middle values.
To this end, 100-fold concentrated compound solutions (in DMSO) were previously prepared by serial dilution (1:3.4) of 2 mM stocks in a clear low volume 384-well source microtiter plate (Greiner Bio-One, Frickenhausen, Germany), from which 50 nl of compounds were transferred into a black low volume test microtiter plate from the same supplier. […] The resulting mixture (5 μL final volume) was incubated at 22° C. during 60 min., and the reaction was stopped by the addition of 5 μL of an aqueous EDTA-solution (50 mM EDTA, in 100 mM HEPES pH 7.5 and 0.2% (w/v) bovine serum albumin) which also contained the TR-FRET detection reagents (0.2 μM streptavidin-XL665 [Cisbio Bioassays, Codolet, France] and 1 nM anti-phosho-Serine antibody [Merck Millipore, cat. #35-002] and 0.4 nM LANCE EU-W1024 labeled anti-mouse IgG antibody [Perkin-Elmer, product no. AD0077, alternatively a Terbium-cryptate-labeled anti-mouse IgG antibody from Cisbio Bioassays can be used]). The stopped reaction mixture was further incubated 1 h at 22° C. in order to allow the formation of complexes between peptides and detection reagents. Subsequently, the amount of product was evaluated by measurement of the resonance energy transfer from the Eu-chelate-antibody complex recognizing the Phosphoserine residue to the streptavidin-XL665 bound to the biotin moiety of the peptide. […] The data were normalised using two sets of control wells for high- (=enzyme reaction without inhibitor=0%=Minimum inhibition) and low- (=all assay components without enzyme=100%=Maximum inhibition) Bub1 activity. IC50 values were calculated by fitting the normalized inhibition data to a 4-parameter logistic equation (Minimum, Maximum, IC50, Hill; Y=Max+(Min−Max)/(1+(X/IC50)Hill)).

Chain of (recombinant) catalytic domain of human Bub1 (amino acids 704-1085) (O43683 704-1085): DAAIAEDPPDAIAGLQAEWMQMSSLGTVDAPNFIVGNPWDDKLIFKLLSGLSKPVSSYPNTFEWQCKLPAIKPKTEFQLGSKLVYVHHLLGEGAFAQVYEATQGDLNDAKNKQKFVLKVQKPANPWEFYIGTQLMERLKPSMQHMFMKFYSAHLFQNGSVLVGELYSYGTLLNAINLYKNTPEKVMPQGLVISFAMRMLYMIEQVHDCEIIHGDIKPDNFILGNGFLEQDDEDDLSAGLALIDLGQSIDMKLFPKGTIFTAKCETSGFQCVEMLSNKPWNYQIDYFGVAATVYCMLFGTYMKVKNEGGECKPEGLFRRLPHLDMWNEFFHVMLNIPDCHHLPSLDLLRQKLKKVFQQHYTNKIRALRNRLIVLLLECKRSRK

IC50	SMILES
0.0164 µM and 0.00755 µM	O=C1CCCc2[nH]c(-c3ccnc(NC(=O)C4C[C@@H]4F)c3)c(Nc3ccccc3)c21 (mixture of isomers) [Example 249, rel-(R,S/S,R)-2-fluoro-N-{4-[4-oxo-3-(phenylamino)-4,5,6,7-tetrahydro-1H-indol-2-yl]pyridin-2-yl}cyclopropanecarboxamide]
0.0166 µM	O=C1CCCc2[nH]c(-c3ccnc(NC(=O)C4C[C@H]4F)c3)c(Nc3ccccc3)c21 (mixture of isomers) [Example 252, rel-(S,S/R,R)-2-fluoro-N-{4-[4-oxo-3-(phenylamino)-4,5,6,7-tetrahydro-1H-indol-2-yl]pyridin-2-yl}cyclopropanecarboxamide]
0.00634 µM	CC1(C)CC(=O)c2c([nH]c(-c3ccnc(NC(=O)[C@@H]4C[C@H]4F)c3)c2Nc2ccccc2)C1 (racemic) [Example 254, (S,R)—N-{4-[6,6-dimethyl-4-oxo-3-(phenylamino)-4,5,6,7-tetrahydro-1H-indol-2-yl]pyridin-2-yl}-2-fluorocyclopropanecarboxamide]
0.0597 µM	CC1(C)CC(=O)c2c([nH]c(-c3ccnc(NC(=O)[C@H]4C[C@H]4F)c3)c2Nc2ccccc2)C1 (racemic) [Example 257, (R,R)—N-{4-[6,6-dimethyl-4-oxo-3-(phenylamino)-4,5,6,7-tetrahydro-1H-indol-2-yl]pyridin-2-yl}-2-fluorocyclopropanecarboxamide]
0.0236 µM	O=C1CCCc2[nH]c(-c3ccnc(NC(=O)C4CC4(F)F)c3)c(Nc3ccccc3)c21 (racemic) [Example 260, 2,2-difluoro-N-{4-[4-oxo-3-(phenylamino)-4,5,6,7-tetrahydro-1H-indol-2-yl]pyridin-2-yl}cyclopropanecarboxamide]
0.0326 µM	O=C1CCCc2[nH]c(-c3ccnc(NC(=O)C4CC4C(F)(F)F)c3)c(Nc3ccccc3)c21 (racemic) [Example 262, N-{4-[4-oxo-3-(phenylamino)-4,5,6,7-tetrahydro-1H-indol-2-yl]pyridin-2-yl}-2-(trifluoromethyl)cyclopropanecarboxamide]
0.00503 µM	O=C1CC2(CC2)Cc2[nH]c(-c3ccnc(NC(=O)[C@H]4C[C@@H]4F)c3)c(Nc3ccccc3)c21 (relative stereo) [Example 466, rel-(R,S)-2-fluoro-N-{4-[4′-oxo-3′-(phenylamino)-1′,4′,5′,7′-tetrahydrospiro[cyclopropane-1,6′-indol]-2′-yl]pyridin-2-yl}cyclopropanecarboxamide]
0.00404 µM	CC(C)C1CC(=O)c2c([nH]c(-c3ccncc3)c2Nc2ccccc2)C1 (single isomer, unassigned) [Example 17, 3-(phenylamino)-6-(propan-2-yl)-2-(pyridin-4-yl)-1,5,6,7-tetrahydro-4H-indol-4-one]
0.00509 µM	CC(C)C1CC(=O)c2c([nH]c(-c3ccncc3)c2Nc2ccccc2)C1 (single isomer, unassigned) [Example 18, 3-(phenylamino)-6-(propan-2-yl)-2-(pyridin-4-yl)-1,5,6,7-tetrahydro-4H-indol-4-one]
0.0129 µM	O=C1CC(C(F)(F)F)Cc2[nH]c(-c3ccncc3)c(Nc3ccccc3)c21 (single isomer, unassigned) [Example 440, 3-(phenylamino)-2-(pyridin-4-yl)-6-(trifluoromethyl)-1,5,6,7-tetrahydro-4H-indol-4-one]
0.00572 µM	O=C1CC(C(F)(F)F)Cc2[nH]c(-c3ccncc3)c(Nc3ccccc3)c21 (single isomer, unassigned) [Example 441, 3-(phenylamino)-2-(pyridin-4-yl)-6-(trifluoromethyl)-1,5,6,7-tetrahydro-4H-indol-4-one]
0.0531 µM	CC(C)[C@H]1CC(=O)c2c([nH]c(-c3ccnc(N)c3)c2Nc2ccc(F)cc2)C1 (stereo in doubt) [Example 167, 2-(2-aminopyridin-4-yl)-3-[(4-fluorophenyl)amino]-6-(propan-2-yl)-1,5,6,7-tetrahydro-4H-indol-4-one]
0.00625 µM	CC1(C)CC(=O)c2c([nH]c(-c3ccncc3)c2Nc2ccccc2)C1 [Example 1, 6,6-dimethyl-3-(phenylamino)-2-(pyridin-4-yl)-1,5,6,7-tetrahydro-4H-indol-4-one]
0.00898 µM	CC1(C)CC(=O)c2c([nH]c(-c3ccncc3Cl)c2Nc2ccccc2)C1 [Example 2, 2-(3-chloropyridin-4-yl)-6,6-dimethyl-3-(phenylamino)-1,5,6,7-tetrahydro-4H-indol-4-one]
0.0378 µM	Cc1cccc(Nc2c(-c3ccncc3)[nH]c3c2C(=O)CC(C)(C)C3)c1 [Example 3, 6,6-dimethyl-3-[(3-methylphenyl)amino]-2-(pyridin-4-yl)-1,5,6,7-tetrahydro-4H-indol-4-one]
0.0159 µM	CC1(C)CC(=O)c2c([nH]c(-c3ccncc3)c2Nc2cccc(Cl)c2)C1 [Example 4, 6,6-dimethyl-3-[(3-chlorophenyl)amino]-2-(pyridin-4-yl)-1,5,6,7-tetrahydro-4H-indol-4-one]
0.0252 µM	CC1(C)CC(=O)c2c([nH]c(-c3ccncn3)c2Nc2ccccc2)C1 [Example 5, 6,6-dimethyl-3-(phenylamino)-2-(pyrimidin-4-yl)-1,5,6,7-tetrahydro-4H-indol-4-one]
0.00557 µM	CC(C)C1CC(=O)c2c([nH]c(-c3ccncc3)c2Nc2ccccc2)C1 (centres unmarked) [Example 7, 3-(phenylamino)-6-(propan-2-yl)-2-(pyridin-4-yl)-1,5,6,7-tetrahydro-4H-indol-4-one]
0.0221 µM	O=C1CC(c2ccccc2)Cc2[nH]c(-c3ccncc3)c(Nc3ccccc3)c21 (centres unmarked) [Example 8, 6-Phenyl-3-phenylamino-2-(pyridin-4-yl)-1,5,6,7-tetrahydroindol-4-one]
0.0121 µM	O=C1CCCc2[nH]c(-c3ccncc3)c(Nc3ccccc3)c21 [Example 9, 3-(phenylamino)-2-(pyridin-4-yl)-1,5,6,7-tetrahydro-4H-indol-4-one]
0.0125 µM	CC1(C)CC(=O)c2c([nH]c(-c3ccncc3)c2Nc2ccc(Cl)cc2)C1 [Example 10, 3-[(4-chlorophenyl)amino]-6,6-dimethyl-2-(pyridin-4-yl)-1,5,6,7-tetrahydro-4H-indol-4-one]
0.0165 µM	CC1(C)CC(=O)c2c([nH]c(-c3ccncc3)c2Nc2ccc(F)cc2)C1 [Example 11, 3-[(4-fluorophenyl)amino]-6,6-dimethyl-2-(pyridin-4-yl)-1,5,6,7-tetrahydro-4H-indol-4-one]
0.0154 µM	CC1(C)CC(=O)c2c([nH]c(-c3ccncc3)c2Nc2cccc(Br)c2)C1 [Example 12, 3-[(3-bromophenyl)amino]-6,6-dimethyl-2-(pyridin-4-yl)-1,5,6,7-tetrahydro-4H-indol-4-one]
0.00655 µM	O=C1CC2(CCC2)Cc2[nH]c(-c3ccncc3)c(Nc3ccccc3)c21 [Example 13, 3′-(phenylamino)-2′-(pyridin-4-yl)-1′,7′-dihydrospiro[cyclobutane-1,6′-indol]-4′(5′H)-one]
0.0108 µM	Cc1cc(F)cc(Nc2c(-c3ccncc3)[nH]c3c2C(=O)CC(C)(C)C3)c1 [Example 14, 3-[(3-fluoro-5-methylphenyl)amino]-6,6-dimethyl-2-(pyridin-4-yl)-1,5,6,7-tetrahydro-4H-indol-4-one]
0.0236 µM	CCc1cccc(Nc2c(-c3ccncc3)[nH]c3c2C(=O)CC(C)(C)C3)c1 [Example 15, 3-[(3-ethylphenyl)amino]-6,6-dimethyl-2-(pyridin-4-yl)-1,5,6,7-tetrahydro-4H-indol-4-one]
